For experiment [1], the target named is Matrix metalloproteinase-14 (Homo sapiens, UniProt P50281). Description: Dose Response confirmation of uHTS hits for a small molecule inhibitors of MT1-MMP activation in a fluorescence assay set 1. Type of experiment: functional.
The target of experiment [2] is T1, Histone-lysine N-methyltransferase NSD2 (Homo sapiens, UniProt O96028).
T1 sequence (O96028 whole entry): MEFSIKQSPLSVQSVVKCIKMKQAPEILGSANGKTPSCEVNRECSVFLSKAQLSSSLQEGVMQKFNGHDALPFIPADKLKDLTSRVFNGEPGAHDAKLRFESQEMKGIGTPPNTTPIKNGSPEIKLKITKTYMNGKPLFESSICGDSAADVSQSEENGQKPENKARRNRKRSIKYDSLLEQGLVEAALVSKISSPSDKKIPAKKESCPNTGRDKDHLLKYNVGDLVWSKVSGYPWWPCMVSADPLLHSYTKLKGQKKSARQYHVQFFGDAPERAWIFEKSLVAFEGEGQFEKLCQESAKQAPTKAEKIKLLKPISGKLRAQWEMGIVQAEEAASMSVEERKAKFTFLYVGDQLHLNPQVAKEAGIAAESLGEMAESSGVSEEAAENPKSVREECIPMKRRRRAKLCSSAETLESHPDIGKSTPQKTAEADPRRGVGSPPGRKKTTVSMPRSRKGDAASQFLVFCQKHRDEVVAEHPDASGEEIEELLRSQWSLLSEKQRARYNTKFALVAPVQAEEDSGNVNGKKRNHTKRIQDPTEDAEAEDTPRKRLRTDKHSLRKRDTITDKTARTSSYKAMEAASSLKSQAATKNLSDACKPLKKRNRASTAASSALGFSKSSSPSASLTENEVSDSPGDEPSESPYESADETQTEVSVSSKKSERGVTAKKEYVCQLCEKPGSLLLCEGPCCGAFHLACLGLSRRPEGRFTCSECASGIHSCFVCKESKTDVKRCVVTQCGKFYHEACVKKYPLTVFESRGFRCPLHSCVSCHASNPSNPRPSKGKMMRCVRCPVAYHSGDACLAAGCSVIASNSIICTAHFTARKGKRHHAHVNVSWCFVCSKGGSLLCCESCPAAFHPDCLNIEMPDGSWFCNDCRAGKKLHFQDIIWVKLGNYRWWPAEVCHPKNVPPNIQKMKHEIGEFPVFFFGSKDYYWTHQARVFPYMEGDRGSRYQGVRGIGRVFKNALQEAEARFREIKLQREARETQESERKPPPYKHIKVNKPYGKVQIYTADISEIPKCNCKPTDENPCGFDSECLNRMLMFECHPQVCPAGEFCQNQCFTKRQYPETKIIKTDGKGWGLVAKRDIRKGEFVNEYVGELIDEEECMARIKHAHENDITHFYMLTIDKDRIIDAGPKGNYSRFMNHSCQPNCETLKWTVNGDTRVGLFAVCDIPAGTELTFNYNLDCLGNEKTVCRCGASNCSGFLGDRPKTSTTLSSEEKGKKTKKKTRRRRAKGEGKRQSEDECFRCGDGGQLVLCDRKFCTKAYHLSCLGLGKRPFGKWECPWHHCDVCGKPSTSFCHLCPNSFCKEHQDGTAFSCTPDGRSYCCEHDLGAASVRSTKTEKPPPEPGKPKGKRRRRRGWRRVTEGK
The experiment is classed as biochemical.

For experiment [3], the target named is T2, Apoptotic protease-activating factor 1 (Homo sapiens, UniProt O14727).
T2 sequence (O14727 whole entry): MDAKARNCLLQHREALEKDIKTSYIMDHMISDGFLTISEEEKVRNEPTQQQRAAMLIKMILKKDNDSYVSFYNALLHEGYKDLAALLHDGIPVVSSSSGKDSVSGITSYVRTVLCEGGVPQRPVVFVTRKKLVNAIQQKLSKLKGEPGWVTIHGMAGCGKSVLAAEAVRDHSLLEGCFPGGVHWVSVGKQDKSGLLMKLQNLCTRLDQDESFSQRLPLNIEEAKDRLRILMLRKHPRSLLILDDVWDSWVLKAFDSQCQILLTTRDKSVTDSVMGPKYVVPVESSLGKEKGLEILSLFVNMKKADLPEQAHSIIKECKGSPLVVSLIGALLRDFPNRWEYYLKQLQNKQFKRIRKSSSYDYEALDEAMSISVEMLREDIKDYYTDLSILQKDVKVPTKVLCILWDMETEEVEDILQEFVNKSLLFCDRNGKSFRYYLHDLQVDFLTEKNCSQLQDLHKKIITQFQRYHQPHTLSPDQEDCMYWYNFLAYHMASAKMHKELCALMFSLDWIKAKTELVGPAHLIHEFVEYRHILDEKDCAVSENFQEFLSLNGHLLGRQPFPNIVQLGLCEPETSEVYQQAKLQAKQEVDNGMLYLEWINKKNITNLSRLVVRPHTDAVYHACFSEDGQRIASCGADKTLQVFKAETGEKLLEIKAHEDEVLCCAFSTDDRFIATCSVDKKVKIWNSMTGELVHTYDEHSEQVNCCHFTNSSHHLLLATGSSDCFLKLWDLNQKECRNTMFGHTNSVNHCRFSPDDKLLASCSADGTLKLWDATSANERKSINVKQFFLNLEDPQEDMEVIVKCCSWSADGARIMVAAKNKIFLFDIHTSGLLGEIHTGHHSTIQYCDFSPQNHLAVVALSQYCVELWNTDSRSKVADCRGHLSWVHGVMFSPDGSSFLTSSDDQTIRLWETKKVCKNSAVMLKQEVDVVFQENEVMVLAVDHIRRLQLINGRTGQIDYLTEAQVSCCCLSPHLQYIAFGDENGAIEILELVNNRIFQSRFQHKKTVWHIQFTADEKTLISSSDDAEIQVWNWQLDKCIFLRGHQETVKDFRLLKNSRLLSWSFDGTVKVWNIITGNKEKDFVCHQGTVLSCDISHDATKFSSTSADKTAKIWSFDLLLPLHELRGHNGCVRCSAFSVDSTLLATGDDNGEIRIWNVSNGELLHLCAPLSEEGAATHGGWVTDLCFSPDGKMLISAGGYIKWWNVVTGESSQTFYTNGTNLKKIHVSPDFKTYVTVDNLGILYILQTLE
The experiment is classed as functional.

The source made the active and inactive calls.

By IC50 is commonly meant the point on the concentration scale where inhibition reaches its midpoint. What is called AC50 is the concentration giving half of the maximal activity seen. With `CC1CC(C)CN(C(=O)c2ccc3c(c2NCCO)C(=O)c2ccccc2C3=O)C1` (stereo not drawn), in experiment [1], the IC50 was 69 µM (inactive). In addition, the AC50 in experiment [2] was 19.3 µM (active).
Regarding `CCC(=O)N(C1=C(NC)C(=O)c2ccccc2C1=O)C(C)C`, the IC50 in experiment [3] is 20.8 µM (active).

The record behind these values is ChEMBL document CHEMBL1201862, “PubChem BioAssay data set” (2004).
